Results: PubChem BioAssay (NCI)
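Five concentrations, 48 hours, 96-well plates. TGI marks complete inhibition of growth.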

Columns and labels:
Test in all cases: NCI anticancer screen, dose series, 48 h
[1] = tested on: SK-MEL-28 melanoma
[2] = tested on: RXF 393 renal
[3] = tested on: A498 renal
[4] = tested on: SNB-19 CNS
[5] = tested on: MDA-N
[6] = tested on: NCI/ADR-RES ovarian
[7] = tested on: HS 578T breast
[8] = tested on: SN12C renal
[9] = tested on: A549 NSCLC
[10] = tested on: M14 melanoma
[11] = tested on: RPMI-8226 leukemia
[12] = tested on: SW-620 colon
[13] = tested on: CAKI-1 renal
[14] = tested on: EKVX NSCLC
[15] = tested on: UACC-257 melanoma
[16] = tested on: DU-145 prostate
[17] = tested on: UO-31 renal
[18] = tested on: COLO 205 colon
[19] = tested on: KM12 colon
[20] = tested on: SF-295 CNS
[21] = tested on: OVCAR-5 ovarian
[22] = tested on: SK-MEL-2 melanoma
[23] = tested on: HT29 colon
[24] = tested on: HCT-116 colon
[25] = tested on: T-47D breast
[26] = tested on: UACC-62 melanoma
[27] = tested on: NCI-H226 lung
[28] = tested on: K-562 leukemia
[29] = tested on: 786-0 renal
[30] = tested on: ACHN renal
[31] = tested on: HOP-92 NSCLC
[32] = tested on: U251 CNS
[33] = tested on: OVCAR-3 ovarian
[34] = tested on: HL-60(TB) leukemia
[35] = tested on: SF-539 CNS
[36] = tested on: SNB-75 CNS
[37] = tested on: MALME-3M melanoma
[38] = tested on: TK-10 renal
[39] = tested on: CCRF-CEM leukemia
[40] = tested on: NCI-H23 lung
[41] = tested on: MOLT-4 leukemia
[42] = tested on: BT-549 breast
[43] = tested on: MCF7 breast
[44] = tested on: SK-MEL-5 melanoma
[45] = tested on: SR leukemia
[46] = tested on: IGROV1 ovarian
[47] = tested on: SF-268 CNS
[48] = tested on: PC-3 prostate
[49] = tested on: HOP-62 NSCLC
[50] = tested on: MDA-MB-231 breast
[51] = tested on: OVCAR-4 ovarian
[52] = tested on: NCI-H522 lung
[53] = tested on: OVCAR-8 ovarian
[54] = tested on: NCI-H460 lung
[55] = tested on: HCT-15 colon
[56] = tested on: SK-OV-3 ovarian
[57] = tested on: LOX IMVI melanoma
[58] = tested on: HCC-2998 colon
[59] = tested on: MDA-MB-435
[60] = tested on: DMS 273 small cell lung
[61] = tested on: LXFL 529 NSCLC
[62] = tested on: KM20L2 colon
[63] = tested on: HOP-18 NSCLC
[64] = tested on: SNB-78 CNS
[65] = tested on: DLD-1 colon
[66] = tested on: M19-MEL melanoma
[67] = tested on: DMS 114 small cell lung

Work on CC(=O)Oc1ccc2c(c1)c1c(=O)oc(N(C)C)nc1n2Cc1ccccc1 yielded a TGI [1] greater than 100 µM, a TGI [2] greater than 100 µM and a TGI [3] greater than 83 µM. It also gave a TGI [4] greater than 100 µM, a TGI [5] greater than 100 µM and a TGI [6] greater than 100 µM. For the same compound, the TGI [7] was greater than 100 µM, the TGI [8] was greater than 100 µM and the TGI [9] was greater than 100 µM. It also gave a TGI [10] greater than 100 µM, a TGI [11] greater than 100 µM and a TGI [12] greater than 100 µM. It also gave a TGI [13] greater than 73.3 µM, a TGI [14] greater than 100 µM and a TGI [15] greater than 100 µM. The TGI [16] was greater than 100 µM, the TGI [17] was greater than 81.8 µM and the TGI [18] was greater than 100 µM. The TGI [19] was greater than 100 µM, the TGI [20] was greater than 100 µM and the TGI [21] was greater than 100 µM. The TGI [22] was greater than 100 µM, the TGI [23] was greater than 100 µM and the TGI [24] was greater than 100 µM. The TGI [25] was greater than 92.9 µM, the TGI [26] was greater than 100 µM and the TGI [27] was greater than 100 µM. The TGI [28] was greater than 100 µM, the TGI [29] was greater than 100 µM and the TGI [30] was greater than 100 µM. The TGI [31] was greater than 100 µM, the TGI [32] was greater than 100 µM and the TGI [33] was greater than 100 µM. For the same compound, the TGI [34] was greater than 100 µM, the TGI [35] was greater than 100 µM and the TGI [36] was greater than 100 µM. It also gave a TGI [37] greater than 100 µM, a TGI [38] greater than 100 µM and a TGI [39] greater than 100 µM. It also gave a TGI [40] greater than 100 µM, a TGI [41] greater than 100 µM and a TGI [42] greater than 100 µM. For the same compound, the TGI [43] was greater than 100 µM, the TGI [44] was greater than 100 µM and the TGI [45] was greater than 100 µM. It also gave a TGI [46] greater than 100 µM, a TGI [47] greater than 100 µM and a TGI [48] greater than 100 µM. The TGI [49] was greater than 100 µM, the TGI [50] was greater than 100 µM and the TGI [51] was greater than 100 µM. The TGI [52] was greater than 100 µM, the TGI [53] was greater than 100 µM and the TGI [54] was greater than 100 µM. The TGI [55] was greater than 100 µM, the TGI [56] was greater than 100 µM and the TGI [57] was greater than 100 µM. It also gave a TGI [58] greater than 100 µM and a TGI [59] greater than 100 µM.

With N=C(c1ccccc1)N(O)C1CCCCC1 the TGI [1] was greater than 100 µM, the TGI [2] was greater than 100 µM and the TGI [4] was greater than 100 µM. It also gave a TGI [8] greater than 100 µM, a TGI [9] greater than 100 µM and a TGI [10] greater than 100 µM. It also gave a TGI [12] greater than 100 µM, a TGI [13] greater than 100 µM and a TGI [60] greater than 100 µM. For the same compound, the TGI [14] was greater than 100 µM, the TGI [15] was greater than 100 µM and the TGI [17] was greater than 100 µM. For the same compound, the TGI [18] was greater than 100 µM, the TGI [19] was greater than 100 µM and the TGI [20] was greater than 100 µM. It also gave a TGI [21] greater than 100 µM, a TGI [61] greater than 100 µM and a TGI [22] greater than 100 µM. The TGI [23] was greater than 100 µM, the TGI [62] was greater than 100 µM and the TGI [24] was greater than 100 µM. It also gave a TGI [27] greater than 100 µM, a TGI [29] greater than 100 µM and a TGI [31] greater than 100 µM. For the same compound, the TGI [32] was greater than 100 µM, the TGI [34] was greater than 100 µM and the TGI [35] was greater than 100 µM. It also gave a TGI [36] greater than 100 µM, a TGI [37] greater than 100 µM and a TGI [38] greater than 100 µM. It also gave a TGI [63] greater than 100 µM, a TGI [40] greater than 100 µM and a TGI [64] greater than 100 µM. It also gave a TGI [44] greater than 100 µM, a TGI [45] greater than 100 µM and a TGI [47] greater than 100 µM. For the same compound, the TGI [49] was greater than 100 µM, the TGI [65] was greater than 100 µM and the TGI [51] was greater than 100 µM. The TGI [66] was greater than 100 µM, the TGI [52] was greater than 100 µM and the TGI [53] was greater than 100 µM. The TGI [54] was greater than 100 µM, the TGI [67] was greater than 100 µM and the TGI [57] was greater than 100 µM. For the same compound, the TGI [58] was greater than 100 µM.

COc1ccc(C(O)CNC(=O)c2ccccc2)cc1 (stereo not drawn) showed a TGI [1] greater than 100 µM, a TGI [2] greater than 100 µM and a TGI [3] greater than 100 µM. It also gave a TGI [4] greater than 100 µM, a TGI [5] greater than 100 µM and a TGI [6] greater than 100 µM. It also gave a TGI [7] greater than 100 µM, a TGI [8] greater than 100 µM and a TGI [9] greater than 100 µM. It also gave a TGI [10] greater than 100 µM, a TGI [11] greater than 100 µM and a TGI [12] greater than 100 µM. For the same compound, the TGI [13] was greater than 100 µM, the TGI [14] was greater than 100 µM and the TGI [15] was greater than 100 µM. The TGI [16] was greater than 100 µM, the TGI [18] was greater than 100 µM and the TGI [19] was greater than 100 µM. It also gave a TGI [20] greater than 100 µM, a TGI [21] greater than 100 µM and a TGI [22] greater than 100 µM. The TGI [23] was greater than 100 µM, the TGI [24] was greater than 100 µM and the TGI [25] was greater than 100 µM. For the same compound, the TGI [26] was greater than 100 µM, the TGI [27] was greater than 100 µM and the TGI [28] was greater than 100 µM. The TGI [29] was greater than 100 µM, the TGI [30] was greater than 100 µM and the TGI [31] was greater than 100 µM. It also gave a TGI [32] greater than 100 µM, a TGI [33] greater than 100 µM and a TGI [34] greater than 100 µM. The TGI [35] was greater than 100 µM, the TGI [36] was greater than 100 µM and the TGI [37] was greater than 100 µM. For the same compound, the TGI [38] was greater than 100 µM, the TGI [39] was greater than 100 µM and the TGI [40] was greater than 100 µM. The TGI [41] was greater than 100 µM, the TGI [42] was greater than 100 µM and the TGI [43] was greater than 100 µM. The TGI [44] was greater than 100 µM, the TGI [45] was greater than 100 µM and the TGI [46] was greater than 100 µM. The TGI [47] was greater than 100 µM, the TGI [48] was greater than 100 µM and the TGI [49] was greater than 100 µM. It also gave a TGI [50] greater than 100 µM, a TGI [51] greater than 100 µM and a TGI [52] greater than 100 µM. For the same compound, the TGI [53] was greater than 100 µM, the TGI [54] was greater than 100 µM and the TGI [55] was greater than 100 µM. For the same compound, the TGI [56] was greater than 100 µM, the TGI [57] was greater than 100 µM and the TGI [58] was greater than 100 µM. The TGI [59] was greater than 100 µM.
